{"source": "patent US20190031618A1", "about": "“BENZIMIDAZOLE DERIVATIVES USEFUL AS CB-1 INVERSE AGONISTS” (Janssen Pharmaceutica NV, priority 2015, published 2019)", "key": {"[1]": {"test_system": "DIO mice", "experiment": "Chronic DIO Mouse: oral glucose tolerance test", "type": "in vivo", "conditions": "for Oral Glucose Tolerance Test Blood Glucose AUC: day 23", "method": "(§1) DIO mice received vehicle, test compound (@ 1, 3, 10, and 30 mg/kg) daily for 26 days. At the end of the experiment, the mice were euthanized and blood and tissues were collected.\nAn insulin tolerance test (0.7 U/kg Humulin, ip) was performed on day 21 after a 4 hour food removal. Blood glucose was measured at 0, 15, 30, 60 and 120 minutes after insulin. After an overnight fast, an oral glucose tolerance test (2 g/kg glucose) was performed on day 23. Blood glucose was measured at 0, 30, 60 and 120 minutes after glucose challenge.\n(§2) Blood glucose was measured from the tail vein with a Lifescan glucometer. Plasma insulin was measured with an ELISA or HTRF kit (Cisbio). Plasma parameters were measured with an Olympus clinical chemistry analyzer."}, "[2]": {"test_system": "DIO mice", "experiment": "Chronic DIO Mouse: food intake, body weight, plasma insulin", "type": "in vivo", "conditions": "DIO mice; for Plasma Insulin (Std Err): chronic study", "method": "Male 14-20-week old diet-induced obese mice are ordered from Taconic. Mice were started on a 60% fat diet (D12492, Research Diets, New Brunswick, N.J.) at 6 weeks of age. Mice are single-housed.\nas §1\nBody weight and food weight (food intake) were monitored daily for days 1-5 and twice weekly thereafter.\nas §2"}}}
{"smiles": "O=C(O)c1cccc(CN2CCC(n3c(C4CC4)nc4ccc(C(c5ccc(Cl)cc5)c5ccc(Cl)cc5)cc43)CC2)c1", "note": "[Example 148]", "values": [{"measurement": "Oral Glucose Tolerance Test Blood Glucose AUC", "setting": "[1]; 1 mg/kg daily", "result": 19362, "unit": "mg·min/dL"}, {"measurement": "Oral Glucose Tolerance Test Mean Blood Glucose", "setting": "[1]; 1 mg/kg daily, day 23, 0 min after glucose", "result": 139.90, "unit": "mg/dL"}, {"measurement": "Oral Glucose Tolerance Test Mean Blood Glucose", "setting": "[1]; 1 mg/kg daily, day 23, 30 min after glucose", "result": 179.2, "unit": "mg/dL"}, {"measurement": "Oral Glucose Tolerance Test Mean Blood Glucose", "setting": "[1]; 1 mg/kg daily, day 23, 60 min after glucose", "result": 168.5, "unit": "mg/dL"}, {"measurement": "Oral Glucose Tolerance Test Mean Blood Glucose", "setting": "[1]; 1 mg/kg daily, day 23, 120 min after glucose", "result": 143.5, "unit": "mg/dL"}, {"measurement": "Oral Glucose Tolerance Test Blood Glucose AUC", "setting": "[1]; 3 mg/kg daily", "result": 19705, "unit": "mg·min/dL"}, {"measurement": "Oral Glucose Tolerance Test Mean Blood Glucose", "setting": "[1]; 3 mg/kg daily, day 23, 0 min after glucose", "result": 154.89, "unit": "mg/dL"}, {"measurement": "Oral Glucose Tolerance Test Mean Blood Glucose", "setting": "[1]; 3 mg/kg daily, day 23, 30 min after glucose", "result": 153.11, "unit": "mg/dL"}, {"measurement": "Oral Glucose Tolerance Test Mean Blood Glucose", "setting": "[1]; 3 mg/kg daily, day 23, 60 min after glucose", "result": 183.89, "unit": "mg/dL"}, {"measurement": "Oral Glucose Tolerance Test Mean Blood Glucose", "setting": "[1]; 3 mg/kg daily, day 23, 120 min after glucose", "result": 150.44, "unit": "mg/dL"}, {"measurement": "Oral Glucose Tolerance Test Blood Glucose AUC", "setting": "[1]; 10 mg/kg daily", "result": 19740, "unit": "mg·min/dL"}, {"measurement": "Oral Glucose Tolerance Test Mean Blood Glucose", "setting": "[1]; 10 mg/kg daily, day 23, 0 min after glucose", "result": 141.60, "unit": "mg/dL"}, {"measurement": "Oral Glucose Tolerance Test Mean Blood Glucose", "setting": "[1]; 10 mg/kg daily, day 23, 30 min after glucose", "result": 190.1, "unit": "mg/dL"}, {"measurement": "Oral Glucose Tolerance Test Mean Blood Glucose", "setting": "[1]; 10 mg/kg daily, day 23, 60 min after glucose", "result": 176.2, "unit": "mg/dL"}, {"measurement": "Oral Glucose Tolerance Test Mean Blood Glucose", "setting": "[1]; 10 mg/kg daily, day 23, 120 min after glucose", "result": 132.8, "unit": "mg/dL"}, {"measurement": "Oral Glucose Tolerance Test Blood Glucose AUC", "setting": "[1]; 30 mg/kg daily", "result": 19276.5, "unit": "mg·min/dL"}, {"measurement": "Oral Glucose Tolerance Test Mean Blood Glucose", "setting": "[1]; 30 mg/kg daily, day 23, 0 min after glucose", "result": 125.30, "unit": "mg/dL"}, {"measurement": "Oral Glucose Tolerance Test Mean Blood Glucose", "setting": "[1]; 30 mg/kg daily, day 23, 30 min after glucose", "result": 184.5, "unit": "mg/dL"}, {"measurement": "Oral Glucose Tolerance Test Mean Blood Glucose", "setting": "[1]; 30 mg/kg daily, day 23, 60 min after glucose", "result": 179, "unit": "mg/dL"}, {"measurement": "Oral Glucose Tolerance Test Mean Blood Glucose", "setting": "[1]; 30 mg/kg daily, day 23, 120 min after glucose", "result": 126.9, "unit": "mg/dL"}, {"measurement": "Mean Body Weight (Std Err)", "setting": "[2]; 1 mg/kg daily, Day 0", "result": "42.03 (0.80) Grams"}, {"measurement": "Mean Body Weight (Std Err)", "setting": "[2]; 1 mg/kg daily, Day 1", "result": "42.63 (0.79) Grams"}, {"measurement": "Mean Body Weight (Std Err)", "setting": "[2]; 1 mg/kg daily, Day 2", "result": "42.56 (0.86) Grams"}, {"measurement": "Mean Body Weight (Std Err)", "setting": "[2]; 1 mg/kg daily, Day 3", "result": "42.46 (0.91) Grams"}, {"measurement": "Mean Body Weight (Std Err)", "setting": "[2]; 1 mg/kg daily, Day 4", "result": "42.26 (0.87) Grams"}, {"measurement": "Mean Body Weight (Std Err)", "setting": "[2]; 1 mg/kg daily, Day 5", "result": "42.31 (0.81) Grams"}, {"measurement": "Mean Body Weight (Std Err)", "setting": "[2]; 1 mg/kg daily, Day 8", "result": "41.62 (0.79) Grams"}, {"measurement": "Mean Body Weight (Std Err)", "setting": "[2]; 1 mg/kg daily, Day 11", "result": "41.91 (0.77) Grams"}, {"measurement": "Mean Body Weight (Std Err)", "setting": "[2]; 1 mg/kg daily, Day 15", "result": "42.67 (1.02) Grams"}, {"measurement": "Mean Body Weight (Std Err)", "setting": "[2]; 1 mg/kg daily, Day 18", "result": "40.54 (1.23) Grams"}, {"measurement": "Mean Body Weight (Std Err)", "setting": "[2]; 1 mg/kg daily, Day 24", "result": "41.11 (1.30) Grams"}, {"measurement": "Plasma Insulin (Std Err)", "setting": "[2]; 1 mg/kg daily", "result": "5.92 (0.92) ng/mL"}, {"measurement": "Mean Body Weight (Std Err)", "setting": "[2]; 3 mg/kg daily, Day 0", "result": "42.28 (0.49) Grams"}, {"measurement": "Mean Body Weight (Std Err)", "setting": "[2]; 3 mg/kg daily, Day 1", "result": "42.94 (0.45) Grams"}, {"measurement": "Mean Body Weight (Std Err)", "setting": "[2]; 3 mg/kg daily, Day 2", "result": "42.12 (0.43) Grams"}, {"measurement": "Mean Body Weight (Std Err)", "setting": "[2]; 3 mg/kg daily, Day 3", "result": "41.85 (0.47) Grams"}, {"measurement": "Mean Body Weight (Std Err)", "setting": "[2]; 3 mg/kg daily, Day 4", "result": "41.42 (0.44) Grams"}, {"measurement": "Mean Body Weight (Std Err)", "setting": "[2]; 3 mg/kg daily, Day 5", "result": "41.3 (0.36) Grams"}, {"measurement": "Mean Body Weight (Std Err)", "setting": "[2]; 3 mg/kg daily, Day 8", "result": "39.78 (0.29) Grams"}, {"measurement": "Mean Body Weight (Std Err)", "setting": "[2]; 3 mg/kg daily, Day 11", "result": "39.1 (0.41) Grams"}, {"measurement": "Mean Body Weight (Std Err)", "setting": "[2]; 3 mg/kg daily, Day 15", "result": "40.43 (0.40) Grams"}, {"measurement": "Mean Body Weight (Std Err)", "setting": "[2]; 3 mg/kg daily, Day 18", "result": "39.84 (0.53) Grams"}, {"measurement": "Mean Body Weight (Std Err)", "setting": "[2]; 3 mg/kg daily, Day 24", "result": "40.48 (0.48) Grams"}, {"measurement": "Plasma Insulin (Std Err)", "setting": "[2]; 3 mg/kg daily", "result": "4.74 (0.83) ng/mL"}, {"measurement": "Mean Body Weight (Std Err)", "setting": "[2]; 10 mg/kg daily, Day 0", "result": "42.09 (0.85) Grams"}, {"measurement": "Mean Body Weight (Std Err)", "setting": "[2]; 10 mg/kg daily, Day 1", "result": "42.69 (0.74) Grams"}, {"measurement": "Mean Body Weight (Std Err)", "setting": "[2]; 10 mg/kg daily, Day 2", "result": "40.46 (0.66) Grams"}, {"measurement": "Mean Body Weight (Std Err)", "setting": "[2]; 10 mg/kg daily, Day 3", "result": "39.85 (0.68) Grams"}, {"measurement": "Mean Body Weight (Std Err)", "setting": "[2]; 10 mg/kg daily, Day 4", "result": "39.44 (0.70) Grams"}, {"measurement": "Mean Body Weight (Std Err)", "setting": "[2]; 10 mg/kg daily, Day 5", "result": "38.78 (0.70) Grams"}, {"measurement": "Mean Body Weight (Std Err)", "setting": "[2]; 10 mg/kg daily, Day 8", "result": "37.4 (0.67) Grams"}, {"measurement": "Mean Body Weight (Std Err)", "setting": "[2]; 10 mg/kg daily, Day 11", "result": "36.99 (0.78) Grams"}, {"measurement": "Mean Body Weight (Std Err)", "setting": "[2]; 10 mg/kg daily, Day 15", "result": "37.33 (0.84) Grams"}, {"measurement": "Mean Body Weight (Std Err)", "setting": "[2]; 10 mg/kg daily, Day 18", "result": "37.02 (0.88) Grams"}, {"measurement": "Mean Body Weight (Std Err)", "setting": "[2]; 10 mg/kg daily, Day 24", "result": "36.42 (1.25) Grams"}, {"measurement": "Plasma Insulin (Std Err)", "setting": "[2]; 10 mg/kg daily", "result": "2.20 (0.13) ng/mL"}, {"measurement": "Mean Body Weight (Std Err)", "setting": "[2]; 30 mg/kg daily, Day 0", "result": "42.46 (0.58) Grams"}, {"measurement": "Mean Body Weight (Std Err)", "setting": "[2]; 30 mg/kg daily, Day 1", "result": "43.13 (0.69) Grams"}, {"measurement": "Mean Body Weight (Std Err)", "setting": "[2]; 30 mg/kg daily, Day 2", "result": "39.64 (0.68) Grams"}, {"measurement": "Mean Body Weight (Std Err)", "setting": "[2]; 30 mg/kg daily, Day 3", "result": "38.53 (0.66) Grams"}, {"measurement": "Mean Body Weight (Std Err)", "setting": "[2]; 30 mg/kg daily, Day 4", "result": "37.46 (0.75) Grams"}, {"measurement": "Mean Body Weight (Std Err)", "setting": "[2]; 30 mg/kg daily, Day 5", "result": "36.67 (0.75) Grams"}, {"measurement": "Mean Body Weight (Std Err)", "setting": "[2]; 30 mg/kg daily, Day 8", "result": "34.95 (0.78) Grams"}, {"measurement": "Mean Body Weight (Std Err)", "setting": "[2]; 30 mg/kg daily, Day 11", "result": "33.79 (0.87) Grams"}, {"measurement": "Mean Body Weight (Std Err)", "setting": "[2]; 30 mg/kg daily, Day 15", "result": "34.19 (0.64) Grams"}, {"measurement": "Mean Body Weight (Std Err)", "setting": "[2]; 30 mg/kg daily, Day 18", "result": "32.47 (0.92) Grams"}, {"measurement": "Mean Body Weight (Std Err)", "setting": "[2]; 30 mg/kg daily, Day 24", "result": "32.86 (0.91) Grams"}, {"measurement": "Plasma Insulin (Std Err)", "setting": "[2]; 30 mg/kg daily", "result": "2.85 (0.27) ng/mL"}]}
